From patent US20060100243A1 (priority 2004, published 2006)
“Also recorded” adds a separate entry of the source. Read-outs that look alike come from different tables or passages of the source.

Columns and labels:
[1] = molecular target: T1, recombinant human dopamine transporter (Homo sapiens, UniProt Q01959); assay: dopamine reuptake inhibition in HEK 293 cells; type: cell-based; settings: for IC50: HEK 293 cells; for NE/DA REUPTAKE: ratio of NE/DA reuptake IC50, selectivity for dopamine over norepinephrine transporter
T1 construct: expressed in transfected cells
T1 sequence (Q01959 whole entry): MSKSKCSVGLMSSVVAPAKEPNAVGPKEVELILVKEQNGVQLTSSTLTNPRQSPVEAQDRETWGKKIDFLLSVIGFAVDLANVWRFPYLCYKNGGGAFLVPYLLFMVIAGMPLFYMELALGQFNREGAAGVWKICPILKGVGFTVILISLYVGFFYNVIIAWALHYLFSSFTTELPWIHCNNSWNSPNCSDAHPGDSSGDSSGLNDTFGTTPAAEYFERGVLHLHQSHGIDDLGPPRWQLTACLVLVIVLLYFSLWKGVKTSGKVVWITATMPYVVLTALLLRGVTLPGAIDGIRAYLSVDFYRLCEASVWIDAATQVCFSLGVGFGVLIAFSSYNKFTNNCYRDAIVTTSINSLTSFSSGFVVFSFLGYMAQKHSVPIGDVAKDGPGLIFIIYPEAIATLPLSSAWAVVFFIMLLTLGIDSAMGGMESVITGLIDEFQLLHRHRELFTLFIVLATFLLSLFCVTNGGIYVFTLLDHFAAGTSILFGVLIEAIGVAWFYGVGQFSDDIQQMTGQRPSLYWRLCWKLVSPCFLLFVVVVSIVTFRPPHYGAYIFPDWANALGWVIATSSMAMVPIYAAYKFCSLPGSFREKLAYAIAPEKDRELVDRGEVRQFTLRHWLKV

[2] = molecular target: T2, recombinant human serotonin transporter (Homo sapiens, UniProt P31645); assay: biochemical; type: binding
T2 construct: expressed in transfected cells
T2 sequence (P31645 whole entry): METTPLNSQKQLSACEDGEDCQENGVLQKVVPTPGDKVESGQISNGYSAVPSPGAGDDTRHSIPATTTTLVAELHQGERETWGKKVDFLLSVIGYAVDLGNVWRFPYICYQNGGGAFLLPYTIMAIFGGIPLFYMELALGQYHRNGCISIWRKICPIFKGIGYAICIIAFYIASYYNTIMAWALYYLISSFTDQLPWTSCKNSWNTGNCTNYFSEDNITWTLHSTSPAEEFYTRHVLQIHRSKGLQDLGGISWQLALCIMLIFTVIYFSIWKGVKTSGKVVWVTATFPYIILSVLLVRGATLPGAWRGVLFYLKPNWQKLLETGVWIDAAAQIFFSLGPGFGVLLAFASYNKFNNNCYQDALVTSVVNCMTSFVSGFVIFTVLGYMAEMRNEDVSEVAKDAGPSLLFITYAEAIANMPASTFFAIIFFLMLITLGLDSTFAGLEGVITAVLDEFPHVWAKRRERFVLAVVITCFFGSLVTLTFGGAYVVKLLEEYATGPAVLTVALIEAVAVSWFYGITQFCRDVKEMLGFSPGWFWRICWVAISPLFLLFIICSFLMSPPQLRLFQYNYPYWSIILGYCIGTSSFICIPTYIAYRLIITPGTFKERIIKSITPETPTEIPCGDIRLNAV

[3] = molecular target: T3, recombinant human norepinephrine transporter (Homo sapiens, UniProt P23975); assay: biochemical; type: binding
T3 construct: expressed in transfected cells
T3 sequence (P23975 whole entry): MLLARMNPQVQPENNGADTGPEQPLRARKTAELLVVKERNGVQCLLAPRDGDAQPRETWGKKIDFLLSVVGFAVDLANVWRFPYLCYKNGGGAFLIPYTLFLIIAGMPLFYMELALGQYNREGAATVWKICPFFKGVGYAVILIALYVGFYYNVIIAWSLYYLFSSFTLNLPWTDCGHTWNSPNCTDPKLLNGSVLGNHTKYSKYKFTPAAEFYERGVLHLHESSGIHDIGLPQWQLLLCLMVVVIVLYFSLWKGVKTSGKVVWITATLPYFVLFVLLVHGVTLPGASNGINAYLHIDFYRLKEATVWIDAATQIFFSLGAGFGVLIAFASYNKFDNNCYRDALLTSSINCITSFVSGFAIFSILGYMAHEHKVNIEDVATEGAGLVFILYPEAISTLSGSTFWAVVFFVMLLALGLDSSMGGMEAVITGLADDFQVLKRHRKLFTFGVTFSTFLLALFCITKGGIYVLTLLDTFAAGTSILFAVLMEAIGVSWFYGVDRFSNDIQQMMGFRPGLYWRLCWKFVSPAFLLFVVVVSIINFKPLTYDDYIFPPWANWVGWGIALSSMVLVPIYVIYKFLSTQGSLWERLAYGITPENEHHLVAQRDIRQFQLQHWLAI

[4] = molecular target: T3, recombinant human norepinephrine transporter; assay: cell-based
[5] = molecular target: T1, recombinant human dopamine transporter; assay: [125I]RTI-55 binding, dopamine transporter in HEK 293 cells; settings: for Ki: HEK 293 cells; for potency at binding to the dopamine transporter and blocking dopamine reuptake: in words, compared with MPH / other samples
[6] = molecular target: T2, recombinant human serotonin transporter; assay: serotonin (5HT) reuptake inhibition in HEK 293 cells; type: cell-based; settings: SEROTONIN 5HT REUPTAKE (IC50), HEK 293 cells
[7] = DOPAMINE DA REUPTAKE (IC50), RS/SR racemates table
[8] = RS/SR racemates table, HEK 293 cells, read-out: SEROTONIN [I125]-RTI-55 BINDING (Ki)
[9] = NOREPINEPHRINE [I125]-RTI-55 BINDING (Ki)
[10] = DOPAMINE [I125]-RTI-55 BINDING (Ki), RS/SR racemates table
[11] = SEROTONIN [I125]-RTI-55 BINDING (Ki)
[12] = RS/SR racemates table, HEK 293 cells, read-out: NOREPINEPHRINE [I125]-RTI-55 BINDING (Ki)
[13] = RS/SR racemates table, HEK 293 cells, read-out: NOREPINEPHRINE NE REUPTAKE (IC50)
[14] = DOPAMINE DA REUPTAKE (IC50), RR/SS racemates table
[15] = RR/SS racemates table, HEK 293 cells, read-out: SEROTONIN [I125]-RTI-55 BINDING (Ki)
[16] = DOPAMINE [I125]-RTI-55 BINDING (Ki), RR/SS racemates table

Structure (SMILES) | IC50 [1, 7] [nM] | Ki [3, 9] [µM] | IC50 ([4]; NORE[…] REUPTAKE (IC50)) [nM] | Ki [5, 10] [nM] | IC50 ([6]; RS/SR racemates table) [nM] | Ki [2, 11] [nM] | IC50 [1, 14] [nM] | Ki [5, 16] [nM] | further results
Clc1ccc(C(CC2CCCCC2)C2CCCCN2)cc1 (single isomer, unassigned) [HH] | 410 ± 60 | 4.3 ± 0.2 | 1700 ± 600 | 260 ± 30 | 6400 ± 1300 |  |  |  | Ki [2, 8]: 3700 ± 500 nM
Clc1ccc(C(CCc2ccccc2)C2CCCCN2)cc1 (single isomer, unassigned) [II] | 420 ± 140 | 2.4 ± 0.7 | 610 ± 150 | 700 ± 90 | 2100 ± 900 | 1840 ± 70 |  |  | 
COC(=O)C(c1ccc(Cl)c(Cl)c1)C1CCCCN1 (single isomer, unassigned) [MM] | 800 ± 110 |  |  | 90 ± 14 | 1100 ± 90 |  |  |  | Ki [2, 8]: 2500 ± 420 nM; Ki [3, 12]: 4.2 ± 1.9 µM; IC50 [4, 13]: 190 ± 50 nM
CC(C)C(c1ccc(Cl)cc1)C1CCCCN1 (single isomer, unassigned) [CC] | 990 ± 280 | > 10 |  | 900 ± 320 |  | > 10000 |  |  | 
Clc1ccc(C(CC2CCCC2)C2CCCCN2)cc1 (racemic) [LL] |  |  |  |  |  |  |  |  | IC50 ([1]; RS/SR racemates table, read-out: DOPAMINE DA REUPTAKE (IC50)): 180 ± 20 nM; Ki [3, 12]: 2.6 ± 0.8 µM; IC50 [4, 13]: 730 ± 230 nM; Ki ([5]; RS/SR racemates table, read-out: DOPAMINE [I125]-RTI-55 BINDING (Ki)): 310 ± 80 nM
Clc1ccc(C(C2CCCC2)C2CCCCN2)cc1 (single isomer, unassigned) [K] |  |  |  |  |  |  | 27 ± 8.3 | 36 ± 10 | Ki [2, 15]: 5700 ± 1100 nM; IC50 ([6]; RR/SS racemates table): 4600 ± 800 nM
CCCCC(c1ccc(Cl)cc1)C1CCCCN1 (single isomer, unassigned) [GG] | 170 ± 40 |  |  | 290 ± 70 |  |  |  |  | Ki ([3]; NOREPINEPHRINE [I125]-RTI-55 BINDING (Ki), RS/SR racemates table, HEK 293 cells): 1.6 ± 0.3 µM; IC50 [4, 13]: 180 ± 160 nM
CCC(c1ccc(Cl)cc1)C1CCCCN1 (single isomer, unassigned) [BB] | 2200 ± 300 |  |  | 3500 ± 1000 | 2000 ± 600 | 5700 ± 800 |  |  | Ki ([3]; RS/SR racemates table, in μM, read-out: NOREPINEPHRINE [I125]-RTI-55 BINDING (Ki)): > 10 µM
Clc1ccc(C(CCc2ccccc2)C2CCCCN2)cc1 (single isomer, unassigned) [I] |  | 1.8 ± 0.6 | 680 ± 240 |  |  | 640 ± 60 | 160 ± 20 | 24 ± 9 | NE/DA REUPTAKE [1]: 4.3; IC50 ([6]; RR/SS racemates table): 650 ± 219 nM
Clc1ccc(C(Cc2ccccc2)C2CCCCN2)cc1 (single isomer, unassigned) [JJ] | 390 ± 60 | 4 ± 0.8 | > 800 | 550 ± 60 | 4700 ± 500 | 4300 ± 800 |  |  | 
CC(C)CC(c1ccc(C(C)C)cc1)C1CCCCN1 (racemic) [PP] |  | 3.2 ± 0.6 |  |  | 1700 ± 100 | 1700 ± 500 |  |  | 
CC(C)CC(c1ccc(Cl)c(Cl)c1)C1CCCCN1C (single isomer, unassigned) [OO] | 45 ± 4 |  |  | 44 ± 12 | 2400 ± 700 |  |  |  | Ki [2, 8]: 1500 ± 300 nM; Ki [3, 12]: 0.66 ± 0.13 µM; IC50 [4, 13]: 100 ± 19 nM; potency at binding to the dopamine transporter and blocking dopamine reuptake [5]: considerably more potent; also recorded: most potent
CC(C)CC(c1ccc(C(C)C)cc1)C1CCCCN1 (racemic) [P] |  | 2.5 ± 0.6 | 7100 ± 1800 |  |  | 3300 ± 600 | 4000 ± 400 | 3300 ± 600 | NE/DA REUPTAKE [1]: 1.8; IC50 ([6]; RR/SS racemates table): 4700 ± 700 nM
CCCCC(c1ccc(Cl)cc1)C1CCCCN1 (single isomer, unassigned) [G] |  |  |  |  |  |  | 8.2 ± 2.1 | 7.8 ± 1.1 | Ki ([3]; NOREPINEPHRINE [I125]-RTI-55 BINDING (Ki), RR/SS racemates table, HEK 293 cells): 0.23 ± 0.03 µM; IC50 ([4]; RR/SS racemates table, HEK 293 cells, read-out: NOREPINEPHRINE NE REUPTAKE (IC50)): 26 ± 7 nM; potency at binding to the dopamine transporter and blocking dopamine reuptake [5]: enhanced potency; also recorded: most potent
Clc1ccc(C(CC2CCCCC2)C2CCCCN2)cc1 (single isomer, unassigned) [H] |  | 4.2 ± 0.2 | 940 ± 140 |  |  |  | 230 ± 70 | 130 ± 40 | NE/DA REUPTAKE [1]: 4.1; Ki [2, 15]: 900 ± 400 nM; IC50 ([6]; RR/SS racemates table): 1000 ± 200 nM
